Assay results reported in ChEMBL document CHEMBL1201862, “PubChem BioAssay data set” (2004).
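Protocol summary: plate cells (96-well), add compound at 5 concentrations, incubate 48 h, interpolate endpoints linearly. Abbreviation: GI50, concentration required for 50% inhibition of growth.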 Active and inactive are the calls of the source. Cut-off read from the data, not from the text of the source: active = GI50 up to about 1.1 µM and inactive = higher.

Columns and labels:
Test in all cases: growth of human tumour cells (NCI), 48 h
[1] = test system: HCT-116
[2] = test system: SW-620
[3] = test system: SK-MEL-5
[4] = test system: NCI/ADR-RES
[5] = test system: A498
[6] = test system: SNB-75
[7] = test system: CAKI-1
[8] = test system: MCF7
[9] = test system: SF-295
[10] = test system: TK-10
[11] = test system: M14
[12] = test system: T47D
[13] = test system: LOX IMVI
[14] = test system: RXF 393
[15] = test system: PC-3
[16] = test system: 786-0
[17] = test system: Hs-578T
[18] = test system: HCT-15
[19] = test system: HL-60

Measured: GI50

Cc1ccc(OCC2OC(n3cnc4nc(Cl)nc(Cl)c43)CC2Oc2ccc(C)cc2)cc1 (configuration not stated)
active: [19] 0.402 µM
2.36 µM: [18]
inactive: [1] 4.55 µM | [2] 3.76 µM | [3] 16.3 µM | [4] 15.3 µM | [5] 22.4 µM | [6] 14.7 µM | [7] 4.75 µM | [8] 5.61 µM | [9] 16.4 µM | [10] 13.8 µM | [11] 6.35 µM | [12] 6.19 µM | [13] 2 µM | [14] 3.85 µM | [15] 11.6 µM | [16] 5.25 µM | [17] 11.9 µM

[O-][n+]1cn[n+]([O-])c2ccccc21
16.4 µM: [18]
inactive: [1] 13.3 µM | [2] 6.82 µM | [3] > 10 µM | [4] 23.5 µM | [5] 61.4 µM | [6] 66.5 µM | [7] 18.9 µM | [8] 14.3 µM | [9] 30.3 µM | [10] > 100 µM | [11] 23.8 µM | [12] 5.97 µM | [13] 23.9 µM | [14] 20.7 µM | [15] 11.7 µM | [16] 14.6 µM | [17] 57.1 µM | [19] 5.04 µM

CN(C)c1ccc(/C=C2\N=C(N/N=C/c3ccc(N(C)C)cc3)NC2=O)cc1
inactive: [1] > 100 µM | [2] > 100 µM | [3] 44.4 µM | [4] > 100 µM | [5] 26.8 µM | [6] > 100 µM | [7] > 100 µM | [8] 71.9 µM | [9] 58.2 µM | [10] > 100 µM | [11] 88.7 µM | [12] 16.7 µM | [14] 7.6 µM | [15] > 100 µM | [16] > 100 µM | [17] > 100 µM | [19] 29.4 µM
30.8 µM: [18]

CC(=O)NCC1OC2COC(c3ccccc3)OC2C(NC(=O)c2ccccc2)C1OC(=O)c1ccccc1 (configuration not stated)
> 100 µM: [18]
inactive: [1] > 100 µM | [2] > 100 µM | [3] > 100 µM | [4] > 100 µM | [5] 44.5 µM | [6] > 100 µM | [7] > 100 µM | [8] > 100 µM | [9] > 100 µM | [10] > 100 µM | [11] > 100 µM | [12] 34.5 µM | [13] > 100 µM | [14] 35 µM | [15] 33.3 µM | [16] > 100 µM | [17] > 100 µM | [19] 85.5 µM

C=CCSc1nc2c(N)ncnc2n1C1OC(CO)C(O)C1O (configuration not stated)
inactive: [1] > 100 µM | [2] > 100 µM | [3] > 100 µM | [4] > 100 µM | [5] > 100 µM | [6] > 100 µM | [7] > 100 µM | [8] > 100 µM | [9] > 100 µM | [10] > 100 µM | [11] > 100 µM | [12] > 100 µM | [13] > 100 µM | [14] > 100 µM | [15] > 100 µM | [16] > 100 µM | [17] > 100 µM | [19] > 100 µM
> 100 µM: [18]

CC(=O)Nc1ccc(S(=O)(=O)c2nnc(NC(C)=O)s2)cc1
inactive: [1] > 100 µM | [2] > 100 µM | [3] > 100 µM | [4] > 100 µM | [5] > 100 µM | [6] > 100 µM | [7] > 100 µM | [8] > 100 µM | [9] 25.5 µM | [10] > 100 µM | [11] > 100 µM | [12] > 100 µM | [13] > 100 µM | [14] > 100 µM | [16] > 100 µM | [17] > 100 µM | [19] > 100 µM
> 100 µM: [18]
active: [15] 0.401 µM

O=C(Nc1ccccc1)c1cc2c(cc1Cl)SC(NNCCO)=NS2(=O)=O
> 100 µM: [18]
inactive: [1] > 100 µM | [2] > 100 µM | [3] > 100 µM | [4] > 100 µM | [5] > 100 µM | [6] 99.5 µM | [7] > 100 µM | [8] > 100 µM | [9] > 100 µM | [10] > 100 µM | [11] > 100 µM | [12] > 100 µM | [13] > 100 µM | [14] > 100 µM | [15] > 100 µM | [16] > 100 µM | [17] > 100 µM | [19] > 100 µM

COc1cc(/C=C2\CC(C)C/C(=C\c3ccc(O)c(OC)c3)C2=O)ccc1O (configuration not stated)
inactive: [1] 1.77 µM | [2] 2.24 µM | [3] 1.82 µM | [4] 17.5 µM | [5] 2.52 µM | [6] 4.24 µM | [8] 4.66 µM | [9] 10.6 µM | [10] 5.45 µM | [11] 3.04 µM | [12] 1.6 µM | [13] 2.29 µM | [14] 2.85 µM | [15] 4 µM | [16] > 20.2 µM | [17] 2.05 µM | [19] 2.98 µM
1.73 µM: [18]

CNC(=O)c1cc(NC(=O)N(CCC#N)CCN(C(=O)N[C@@H](Cc2ccccc2)C(=O)N[C@@H](CC(C)C)C(=O)NC)c2ccccc2)ccc1OC
inactive: [1] > 63.7 µM | [2] > 100 µM | [3] 29.9 µM | [4] > 100 µM | [5] > 49.5 µM | [6] 49.3 µM | [7] > 81.1 µM | [8] > 76 µM | [9] > 79.3 µM | [10] > 72.6 µM | [11] > 93.3 µM | [12] > 47.6 µM | [13] 49.3 µM | [14] > 54.6 µM | [15] > 80 µM | [16] > 55.2 µM | [17] 58.7 µM | [19] 23.2 µM
> 100 µM: [18]

N/N=c1\[nH]c2ccccc2o1
77.3 µM: [18]
inactive: [1] 80 µM | [2] > 100 µM | [3] > 100 µM | [4] 52.7 µM | [5] > 100 µM | [6] > 100 µM | [7] > 100 µM | [8] 88.7 µM | [10] > 100 µM | [11] > 100 µM | [12] 30.1 µM | [13] > 100 µM | [14] > 100 µM | [15] > 100 µM | [16] 86.7 µM | [17] > 100 µM | [19] 53.6 µM

CCC(=O)Nc1ccc(N2C(=O)C(Cl)C2c2ccc(SC)cc2)cc1 (configuration not stated)
98.2 µM: [18]
inactive: [1] > 100 µM | [2] > 100 µM | [3] 20.7 µM | [4] > 100 µM | [5] > 100 µM | [6] > 100 µM | [7] > 100 µM | [8] 56.2 µM | [9] > 100 µM | [11] > 100 µM | [12] 73.6 µM | [13] 40.1 µM | [14] 34.8 µM | [15] > 100 µM | [16] 57.3 µM | [17] > 100 µM | [19] 78.3 µM

Cc1ccc(S(=O)(=O)C2=C([Si](C)(C)C)C3CC2[C@@H]2C4C=CC(CC4)[C@H]32)cc1 (some centres not stated)
inactive: [1] > 100 µM | [2] > 100 µM | [3] > 100 µM | [4] > 100 µM | [5] > 100 µM | [7] 82.6 µM | [8] > 100 µM | [9] 28.4 µM | [10] 27 µM | [11] > 100 µM | [12] 37.9 µM | [13] > 100 µM | [14] 33.5 µM | [15] 35.3 µM | [16] 34.6 µM | [17] 39.1 µM | [19] > 100 µM
> 100 µM: [18]

COC(=O)NC(C(F)(F)F)(C(F)(F)F)P1(=O)OCCCO1
inactive: [1] 23.2 µM | [2] 20.7 µM | [3] 17.6 µM | [4] 39.4 µM | [5] 17 µM | [6] 47.6 µM | [8] 31.3 µM | [9] 23.7 µM | [10] 37.4 µM | [11] 24.8 µM | [12] 20.4 µM | [13] 16.4 µM | [14] 2.74 µM | [15] 25.4 µM | [16] 36.9 µM | [17] 37.4 µM | [19] 16.6 µM
22.8 µM: [18]

C=CCSC1=N/C(=C\c2ccc(OC)cc2)C(=O)N1CC=C
20.8 µM: [18]
inactive: [1] 25.4 µM | [2] 35.2 µM | [3] 15.6 µM | [4] 27.6 µM | [5] 14.9 µM | [7] 50.5 µM | [8] 28.4 µM | [9] 35.3 µM | [10] 45.2 µM | [11] 36.7 µM | [12] 16.2 µM | [13] 33 µM | [14] 14.6 µM | [15] 20.8 µM | [16] 25.5 µM | [17] 64.7 µM | [19] 16 µM

OC[C@H]1CC(c2nn[nH]n2)[C@H](O)[C@@H]1O (some centres not stated)
> 100 µM: [18]
inactive: [1] > 100 µM | [2] > 100 µM | [3] > 100 µM | [4] > 100 µM | [5] > 100 µM | [6] > 100 µM | [8] > 100 µM | [9] > 100 µM | [10] > 100 µM | [11] > 100 µM | [12] > 100 µM | [13] > 100 µM | [14] 8.13 µM | [15] > 100 µM | [16] > 100 µM | [17] > 100 µM | [19] > 100 µM
